From the CheMixHub viscosity set
± gives the uncertainty stated by the source.

Experiment: xn = mol fraction of the nth substance listed
Details: 101 kPa

OCCOCCOCCO + CN(C)C=O
viscosity [mPa·s]
Details | 293.15 K | 298.15 K | 303.15 K | 308.15 K | 313.15 K | 318.15 K
x1 = 0.025 | 1 ± 0.02 | 0.933 ± 0.02 | 0.868 ± 0.018 | 0.847 ± 0.018 | 0.768 ± 0.016 | 0.727 ± 0.015
x1 = 0.0513 | 1.15 ± 0.02 | 1.07 ± 0.02 | 0.987 ± 0.021 | 0.952 ± 0.02 | 0.876 ± 0.019 | 0.815 ± 0.017
x1 = 0.0791 | 1.33 ± 0.03 | 1.24 ± 0.03 | 1.13 ± 0.02 | 1.08 ± 0.02 | 0.997 ± 0.021 | 0.921 ± 0.02
x1 = 0.1085 | 1.54 ± 0.03 | 1.42 ± 0.03 | 1.31 ± 0.03 | 1.22 ± 0.03 | 1.15 ± 0.02 | 1.05 ± 0.02
x1 = 0.1396 | 1.81 ± 0.04 | 1.68 ± 0.04 | 1.51 ± 0.03 | 1.39 ± 0.03 | 1.32 ± 0.03 | 1.21 ± 0.03
x1 = 0.1726 | 2.12 ± 0.05 | 1.95 ± 0.04 | 1.76 ± 0.04 | 1.6 ± 0.03 | 1.52 ± 0.03 | –
x1 = 0.2077 | 2.53 ± 0.05 | 2.3 ± 0.05 | 2.07 ± 0.04 | 1.85 ± 0.04 | 1.76 ± 0.04 | –
x1 = 0.245 | 3.02 ± 0.06 | 2.74 ± 0.06 | 2.44 ± 0.05 | 2.16 ± 0.05 | 2.06 ± 0.04 | –
x1 = 0.2848 | 3.64 ± 0.08 | 3.27 ± 0.07 | 2.88 ± 0.06 | 2.53 ± 0.05 | 2.41 ± 0.05 | –
x1 = 0.3274 | 4.45 ± 0.1 | 3.93 ± 0.08 | 3.45 ± 0.07 | 3 ± 0.06 | 2.85 ± 0.06 | –
x1 = 0.373 | 5.37 ± 0.12 | 4.74 ± 0.1 | 4.12 ± 0.09 | 3.55 ± 0.08 | 3.33 ± 0.07 | –
x1 = 0.422 | 6.64 ± 0.14 | 5.77 ± 0.13 | 4.96 ± 0.11 | 4.25 ± 0.09 | 3.96 ± 0.08 | –
x1 = 0.4748 | 8.33 ± 0.18 | 7.17 ± 0.16 | 6.09 ± 0.13 | 5.12 ± 0.11 | 4.79 ± 0.1 | –
x1 = 0.5318 | 10.3 ± 0.2 | 8.94 ± 0.19 | 7.5 ± 0.17 | 6.17 ± 0.13 | 5.77 ± 0.12 | –
x1 = 0.5935 | 12.9 ± 0.3 | 10.9 ± 0.2 | 9.08 ± 0.2 | 7.6 ± 0.16 | 6.92 ± 0.15 | –
x1 = 0.6607 | 16.5 ± 0.4 | 13.7 ± 0.3 | 11.3 ± 0.3 | 9.37 ± 0.2 | 8.38 ± 0.18 | –
x1 = 0.7339 | 21.2 ± 0.5 | 17.4 ± 0.4 | 14.2 ± 0.3 | 11.6 ± 0.3 | 10.3 ± 0.2 | –
x1 = 0.8141 | 27.4 ± 0.6 | 22.2 ± 0.5 | 17.9 ± 0.4 | 14.4 ± 0.3 | 12.8 ± 0.3 | –
x1 = 0.9024 | 35.5 ± 0.8 | 28.6 ± 0.6 | 22.7 ± 0.5 | 17.6 ± 0.4 | 15.8 ± 0.3 | –
